Assay results as given in US4199600A, “Preservation of aqueous systems with α-halo-β-aminocrotonic acid esters” (Givaudan Corporation, priority 1978, dated 1980).
≈ marks a conversion by molar mass, not a printed value. Where two headings read alike, the source gives them in different places.

What was measured:
Assay type in all cases: cell-based
[1] = tested on: E. aerogenes; experiment: Slimicide test for pulp and paper mill water systems; conditions: Klebsiella aerogenes, 28° C.
Experimental: (§1) Various quantities of a 6% solution of this compound in dimethylformamide were incorporated into 24 ml of a test substrate composed as follows:
(§2) 8.4 g--Whatman No. 2 powdered cellulose
(§3) 1.0 g--Nutrient Broth, Difco
(§4) 10.0 ml--Mersize Rm 70R (Monsanto)
(§5) The samples were inoculated with four different organisms and incubated at 28° C. At weekly intervals the samples were examined for the presence of microbial growth and reinoculated during a total incubation period of four weeks.

[2] = tested on: P. Piscarium; experiment: as above; conditions: 28° C.
Experimental: as §1, §2, §3, §4, §5

[3] = tested on: A. niger; experiment: as above; conditions: 28° C.
Experimental: as §1, §2, §3, §4, §5

[4] = tested on: P. aeruginosa; experiment: as above; conditions: 28° C.
Experimental: as §1, §2, §3, §4, §5

[5] = tested on: Pseudomonas aeruginosa; experiment: Cutting oil preservative test in 3.3% cutting oil emulsion; conditions: for MIC: Pseudomonas aeruginosa, 3.3% cutting oil emulsion, 28° C., rotary shaker, read-out: Minimum Inhibitory Concentration Range
Experimental: (§6) In running these tests, two-fold serial dilutions of 6% solutions of the compound in dimethylformamide was added to 3.3% cutting oil elumsions. The emulsions were prepared by diluting with water a commercially available cutting oil concentrate. The emulsions were inoculated with a culture of Pseudomonas aeruginosa and incubated at 28° C. on a rotary shaker. At weekly intervals, the emulsions were examined for bacteria by conventional streakplate methods. The emulsions were then reinoculated with Pseudomonas aeruginosa and reincubated.

[6] = tested on: Aspergillis oryzae; experiment: General antimicrobial activity, agar dilution MIC (fungi); conditions: 168 h, mildew glucose agar, 28° C., seven days, growth only at the lower concentration of the range, read-out: Minimum Inhibitory Concentration
Experimental: A 6% soltuion of α-halo-β-aminocrotonic acid ester in dimethyl formamide was prepared. The 6% solution was then […] serially diluted in test tubes to give the desired concentrations when mixed with agar and poured into sterile Petri dishes. For instance, 0.8 ml of a 6% stock solution plus 24.2 ml of agar gives a test concentration of 1920 mcg/ml, the highest level tested. Tryptone glucose extract agar is used for the bacterial testing; mildew glucose agar for the fungal testing. The bacterial plates were spot inoculated with 24-hour nutrient broth cultures and incubated at 37° C. for 48 hours. The fungal plates were spot inoculated with spore suspensions and incubated at 28° C. for seven days. At the end of the incubation periods, all plates were examined for growth. The minimum inhibitory concentration (MIC) for each organism is expressed in Table I. In the ranges presented, growth is observed only at the lower concentration.

[7] = tested on: Pseudomonas aeruginosa; experiment: Textile lubricant preservative test; conditions: commercial textile lubricant, 28° C.
Experimental: as §6
The test run was the same as for the cutting oil above except that a commercial textile lubricant was substituted.

[8] = tested on: Pseudomonas aeruginosa; experiment: Cosmetic preservative test in lotion; conditions: 28° C.
Experimental: (§7) The α-halo-β-aminocrotonic acid esters are effective cosmetic preservatives. Two-fold serial dilutions of 6% solutions of the α-halo-β-aminocrotonic acid esters in dimethylformamide were added to a cosmetic lotion of the following formulation: The lotions were inoculated with both Pseudomonas aeruginosa and Aspergillus niger and incubated at 28° C. At weekly intervals, the lotions were examined for microorganisms by conventional streak-plate methods or by macroscopic observation. The lotions were then reinoculated with the test organisms and reincubated.

[9] = tested on: Aspergillus niger; experiment: Cosmetic preservative test in lotion; conditions: 28° C.
Experimental: as §7

[10] = (week 4), reinoculated weekly, read-out: Effectiveness as a Slimicide
[11] = week 1, read-out: Effectiveness as a Slimicide
[12] = week 2, reinoculated weekly, read-out: Effectiveness as a Slimicide
[13] = week 3, reinoculated weekly, read-out: Effectiveness as a Slimicide
[14] = week 1, read-out: Minimum Inhibitory Concentration Range
[15] = week 3, reinoculated weekly, read-out: Minimum Inhibitory Concentration Range
[16] = week 4, reinoculated weekly, read-out: Minimum Inhibitory Concentration Range

COC(=O)/C(Cl)=C(/C)N [α-Chloro-β-aminocrotonic acid methyl ester]
MIC [1, 10]: 250 to 500 µg/mL (≈ 1670 to 3340 µM)
MIC [1, 11]: < 62.5 µg/mL
MIC [1, 12]: 125 to 250 µg/mL (≈ 836 to 1670 µM)
MIC [1, 13]: 250 to 500 µg/mL (≈ 1670 to 3340 µM)
MIC [2, 10]: 62.5 to 125 µg/mL (≈ 418 to 836 µM)
MIC [2, 11]: < 62.5 µg/mL
MIC [2, 12]: < 62.5 µg/mL
MIC [2, 13]: < 62.5 µg/mL
Effectiveness as a Slimicide ([3]; (week 4), reinoculated weekly): < 62.5 µg/mL
Effectiveness as a Slimicide ([3]; week 2, reinoculated weekly): < 62.5 µg/mL
Effectiveness as a Slimicide ([3]; week 3, reinoculated weekly): < 62.5 µg/mL
MIC ([3]; Aspergillus niger, week 1, read-out: Effectiveness as a Slimicide): < 62.5 µg/mL
Effectiveness as a Slimicide ([4]; (week 4), reinoculated weekly): < 62.5 µg/mL
Effectiveness as a Slimicide ([4]; week 2, reinoculated weekly): < 62.5 µg/mL
Effectiveness as a Slimicide ([4]; week 3, reinoculated weekly): < 62.5 µg/mL
MIC ([4]; Pseudomonas aeruginosa, week 1, read-out: Effectiveness as a Slimicide): < 62.5 µg/mL
MIC ([5]; week 1): < 31.3 µg/mL
MIC ([5]; week 2, reinoculated weekly): 62.5 to 125 µg/mL (≈ 418 to 836 µM)
MIC ([5]; week 3, reinoculated weekly): 125 to 250 µg/mL (≈ 836 to 1670 µM)
MIC ([5]; week 4, reinoculated weekly): 250 to 500 µg/mL (≈ 1670 to 3340 µM)
effectiveness as cutting oil preservative (in words) ([5]; overall statement on Table III): effective cutting preservative
MIC [6]: 15 µg/mL (≈ 100 µM)
MIC [7, 14]: 62.5 to 125 µg/mL (≈ 418 to 836 µM)
MIC ([7]; week 2, reinoculated weekly, read-out: Minimum Inhibitory Concentration Range): 62.5 to 125 µg/mL (≈ 418 to 836 µM)
MIC [7, 15]: 62.5 to 125 µg/mL (≈ 418 to 836 µM)
MIC [7, 16]: 125 to 250 µg/mL (≈ 836 to 1670 µM)
Minimum Inhibitory Concentration Range ([8]; week 2, reinoculated weekly): < 125 µg/mL
Minimum Inhibitory Concentration Range ([8]; week 3, reinoculated weekly): < 125 µg/mL
Minimum Inhibitory Concentration Range ([8]; week 4, reinoculated weekly): < 125 µg/mL
MIC ([8]; Pseudomonas aeruginosa, week 1, read-out: Minimum Inhibitory Concentration Range): < 125 µg/mL
MIC [9, 14]: < 125 µg/mL
MIC [9, 15]: 1000 to 2000 µg/mL (≈ 6690 to 13400 µM)
MIC [9, 16]: > 2000 µg/mL
